Test results taken from patent US20200383983A1, “CGRP ANTAGONISTS FOR THE TREATMENT OF MEDICATION OVERUSE HEADACHE, POST-TRAUMATIC HEADACHE, POST-CONCUSSION SYNDROME AND VERTIGO” (Allergan Sales, LLC, priority 2019, published 2020).

How the values were obtained:
[1] = Case scenario: patient with migraine without aura and medication overuse headache (triptan overuse); type: in vivo, human; details: 50 mg once a day, patient averaging 25 doses of oral triptan per month
From the text: (§1) The following non-limiting examples provide those of ordinary skill in the art with possible case scenarios and specific methods to treat conditions within the scope of the present disclosure and are not intended to limit the scope of the disclosure.
A person visits a headache clinic with almost daily migraine attacks. Their migraines have been ongoing since they were […]. […] Eventually, however, the migraine attacks became longer, lasting up to 3 or 4 days and forcing them to take 4 or 5 doses of triptan per attack. Currently, they are averaging 25 doses of oral triptan per month. They are diagnosed with migraine without aura and medication overuse headache. They are treated with ubrogepant at a dose of 50 mg, once a day.

[2] = Case scenario: patient with post-traumatic headache (PTH), subjective pain rating; type: in vivo, human; details: for pain rating at worst, subjective rating scale of zero (no pain) to 10 (worst pain): before treatment 10; for pain rating at best, subjective rating scale of zero (no pain) to 10 (worst pain): before treatment eight; for pain rating on average, subjective rating scale of zero (no pain) to 10 (worst pain): before treatment nine
From the text: as §1
A person complains of right-sided frontal headaches. The patient stated the headaches began 3 months ago after accidentally being hit in the face at the right frontal, maxillary, and zygomatic bones with a heavy instrument. They deny any loss of consciousness at the time of the incident and describes the pain as a “constant achy” to “stabbing” pain primarily over the right eye and right zygomatic bone. They complain of intermittent blurred vision when the pain becomes “stabbing.” They also complain of intermittent tinnitus. On a subjective rating scale of zero (no pain) to 10 (worst pain), the patient rates their pain as eight at best, nine on average, and 10 at worst. Results from a radiographic scan of the skull, CT scan of the brain, and MRI scan of the brain and cervical spine are normal. Results from slit lamp and neurologic testing are also normal. The patient is diagnosed to have PTH. The patient can be treated with ubrogepant at a dose of 100 mg, once a day. The treatment with ubrogepant can reduce the pain experienced by the patient and the patient can rate their pain as five at best, six on average, and nine at worst.
A person complains of right-sided frontal headaches. The patient stated the headaches began 3 months ago after accidentally being hit in the face at the right frontal, maxillary, and zygomatic bones with a heavy instrument. They deny any loss of consciousness at the time of the incident and describes the pain as a “constant achy” to “stabbing” pain primarily over the right eye and right zygomatic bone. They complain of intermittent blurred vision when the pain becomes “stabbing.” They also complain of intermittent tinnitus. On a subjective rating scale of zero (no pain) to 10 (worst pain), the patient rates their pain as eight at best, nine on average, and 10 at worst. Results from a radiographic scan of the skull, CT scan of the brain, and MRI scan of the brain and cervical spine are normal. Results from slit lamp and neurologic testing are also normal. The patient is diagnosed to have PTH. The patient can be treated with erenumab at a dose of 70 mg by subcutaneous administration. A month after the erenumab administration, the patient can rate their pain as five at best, six on average, and nine at worst.

[3] = stated generally, small molecules compared with monoclonal antibodies; cited from earlier work
[4] = Case scenario: patient with chronic migraine and medication overuse headache, weaning off Fiorinal; type: in vivo, human
From the text: as §1
[…] This responded well to Excedrin at that time. As they became older their headaches became more frequent and by the time they were in their late 20's they had headache on more than half the days of the month. Excedrin was no longer effective, and their primary care physician prescribed Fiorinal (aspirin, caffeine and barbiturate compound). […] […] Their primary care physician, on routine blood work noted: worsening renal and liver function tests. The patient reported depression and disability related to their headache disorder. They could not work or participate in family events. They were referred to a neurologist who specialized in headache disorders. They diagnosed them with episodic migraine without aura that had transformed to chronic migraine with associated medication overuse headache. They also diagnosed end organ damage with hepatic and renal damage secondary to analgesic overuse. They recommended a preventive treatment and that they taper off of Fiorinal. The patient started Topiramate as a migraine preventive and despite their best efforts they were unable to wean off of Fiorinal, due to breakthrough headache. They returned to the Neurologist and they prescribed Ubrogepant 50 mg daily for 10 days. […] They continued Topiramate treatment and used Ubrogepant 50 mg a day as needed for breakthrough headache. […] They were able to return to work and to participate in family events.

[5] = 70 mg subcutaneous, a month after administration

For C[C@@H]1[C@H](c2ccccc2)C[C@H](NC(=O)c2cnc3c(c2)C[C@@]2(C3)C(=O)Nc3ncccc32)C(=O)N1CC(F)(F)F [ubrogepant], the “intensity and frequency of migraine” value [1] was “can reduce the intensity and frequency of migraine”, the “pain rating at worst, subjective rating scale of zero (no pain) to 10 (worst pain)” value ([2]; 100 mg once a day) was “nine” and the “pain rating at best, subjective rating scale of zero (no pain) to 10 (worst pain)” value ([2]; 100 mg once a day) was “five”. The “pain rating on average, subjective rating scale of zero (no pain) to 10 (worst pain)” value ([2]; 100 mg once a day) was “six”, the half-life [3] was “measured in hours” and the “need of as-needed use for breakthrough headache” value ([4]; 50 mg a day as needed, after 3 months) was “once or twice a month”. For the same molecule, the “effect on migraine attacks and recurrence” value ([4]; 50 mg a day as needed, continued Topiramate) was “effectively ended their migraine attacks and they had no recurrence requiring re-treatment”, the “need of as-needed use for breakthrough headache” value ([4]; 50 mg a day as needed, first month after weaning off Fiorinal) was “twice a week” and the “weaning off the overused medication (Fiorinal)” value ([4]; 50 mg daily for 10 days, with Topiramate as preventive) was “able to successfully wean off of Fiorinal”.

For N[C@@H]1c2cccnc2[C@H](OC(=O)N2CCC(n3c(=O)[nH]c4ncccc43)CC2)CC[C@H]1c1cccc(F)c1F [rimegepant], the half-life [3] is given as “measured in hours”.

In the case of C[C@@H]1[C@H](c2c(F)ccc(F)c2F)C[C@H](NC(=O)c2cnc3c(c2)C[C@@]2(C3)C(=O)Nc3ncccc32)C(=O)N1CC(F)(F)F [atogepant], the half-life [3] is given as “measured in hours”.

B1: erenumab (antibody, chains of the INN, looked up, V domains shown)
VH: QVQLVESGGGVVQPGRSLRLSCAASGFTFSSFGMHWVRQAPGKGLEWVAVISFDGSIKYSVDSVKGRFTISRDNSKNTLFLQMNSLRAEDTAVYYCARDRLNYYDSSGYYHYKYYGMAVWGQGTTVTVSS
VL: QSVLTQPPSVSAAPGQKVTISCSGSSSNIGNNYVSWYQQLPGTAPKLLIYDNNKRPSGIPDRFSGSKSGTSTTLGITGLQTGDEADYYCGTWDSRLSAVVFGGGTKLTVL
In the case of B1, the “pain rating at worst, subjective rating scale of zero (no pain) to 10 (worst pain)” value [2, 5] is reported as “nine”, the “pain rating at best, subjective rating scale of zero (no pain) to 10 (worst pain)” value [2, 5] is reported as “five” and the “pain rating on average, subjective rating scale of zero (no pain) to 10 (worst pain)” value [2, 5] is reported as “six”.
